Numbers after ± are expanded uncertainties.
Columns and labels:
[1] = Liquid; for mass density: 101.33 kPa; for Normal boiling temperature: Distillation
[2] = refractive index (Na D-line) (dimensionless); conditions: 293.15 K; 101.33 kPa; Liquid; Standard Abbe refractometry

mass density ([1]; 293.15 K) [kg/m3]	Normal boiling temperature [1] [°C]	refractive index [2]	mass density ([1]; 297.15 K) [kg/m3]	mass density ([1]; 298.15 K) [kg/m3]	SMILES
829.5 ± 0.94	230.6 ± 0.5	1.4373 ± 0.0008			CCCCCCCCCCO [decan-1-ol]
	259.4 ± 0.5		830.8 ± 1.5		CCCCCCCCCCCCO [dodecan-1-ol]
828.5 ± 1.7	215.2 ± 0.5	1.4335 ± 0.0008			CCCCCCCCCO [nonan-1-ol]
	195 ± 0.5	1.4292 ± 0.0008		826.25 ± 0.95	CCCCCCCCO [octan-1-ol]
	141.4 ± 0.5	1.3808 ± 0.0008		988.04 ± 0.53	CCC(=O)O [propanoic acid]

— the NIST ThermoML archive (doi:10.1016/j.jct.2006.05.001)
